The values that follow come from patent US12486253B2, “Therapeutics for the degradation of mutant BRAF” (C4 THERAPEUTICS, INC., priority 2021, dated 2025).

This experiment deals with BRAF V600E (Homo sapiens, UniProt P15056, V600E). Kind of experiment: HiBiT cellular BRAF^V600E degradation assay. In kind it is cell-based. The settings on record: for DC50: concentration at which 50% of total cellular BRAF^V600E is degraded; for Emax: read-out: HiBit 24 h Emax. Background: The HiBiT peptide binds its large partner to form an active luciferase.
Chain of BRAF V600E (P15056 whole entry V600E): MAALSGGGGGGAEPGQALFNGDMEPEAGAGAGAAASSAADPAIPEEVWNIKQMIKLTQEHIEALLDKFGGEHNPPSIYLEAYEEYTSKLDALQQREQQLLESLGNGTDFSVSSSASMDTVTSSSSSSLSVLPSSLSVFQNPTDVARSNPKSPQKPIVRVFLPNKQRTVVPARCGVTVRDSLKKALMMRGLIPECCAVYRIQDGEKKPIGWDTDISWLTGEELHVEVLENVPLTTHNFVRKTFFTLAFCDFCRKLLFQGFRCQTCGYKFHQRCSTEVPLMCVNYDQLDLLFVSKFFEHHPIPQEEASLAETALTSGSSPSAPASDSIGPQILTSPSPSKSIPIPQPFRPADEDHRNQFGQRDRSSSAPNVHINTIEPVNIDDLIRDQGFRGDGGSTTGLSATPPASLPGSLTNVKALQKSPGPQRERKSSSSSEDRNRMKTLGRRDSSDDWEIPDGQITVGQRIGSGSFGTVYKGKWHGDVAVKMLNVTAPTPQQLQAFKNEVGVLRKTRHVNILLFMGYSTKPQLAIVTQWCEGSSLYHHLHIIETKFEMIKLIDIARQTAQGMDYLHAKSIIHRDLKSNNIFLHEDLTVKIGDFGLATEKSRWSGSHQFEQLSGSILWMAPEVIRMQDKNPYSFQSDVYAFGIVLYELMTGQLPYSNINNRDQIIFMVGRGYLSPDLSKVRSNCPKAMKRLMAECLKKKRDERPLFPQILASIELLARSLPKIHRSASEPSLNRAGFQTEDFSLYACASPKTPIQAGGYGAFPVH
The mark [1] stands for this setting: A375.10 cells, 24 h, residual protein remaining in the cell.

The structures appear in SMILES notation. Like-named read-outs stand apart in the source and are kept apart here.

Usually DC50 stands for the midpoint of the concentration-degradation curve. Read a high DC50 as degradation only at high concentration. As usually defined, the Emax is the maximal effect, on the per cent scale that the assay sets.

`CCN(C)S(=O)(=O)Nc1ccc(F)c(Oc2ccc3ncn(-c4cnc(N5CCN(C(=O)CN6CCC(c7ccc(N[C@H]8CCC(=O)NC8=O)cc7F)CC6)CC5)nc4)c(=O)c3c2)c1F` [Example 140, 3-[2-[4-[2-[4-[4-[[(3S)-2,6-dioxopiperidin-3-yl]amino]-2-fluorophenyl]piperidin-1-yl]acetyl]piperazin-1-yl]pyrimidin-5-yl]-6-[3-[[ethyl(methyl)sulfamoyl]amino]-2,6-difluorophenoxy]-4-oxoquinazoline]: the DC50 (A375.10 cells, 24 h) turned out to be 27.8 nM. Also, under setting [1], the maximum response (Emax) came to 12.3%.
In the same order, the values of `CCN(C)S(=O)(=O)Nc1ccc(F)c(Oc2ccc3ncn(CCC4CCN(C(=O)CN5CCC(c6ccc(NC7CCC(=O)NC7=O)cc6F)CC5)CC4)c(=O)c3c2)c1C#N` (stereo not drawn) [Example 1, 6-[2-cyano-3-[[ethyl(methyl)sulfamoyl]amino]-6-fluorophenoxy]-3-[2-[1-[2-[4-[4-[(2,6-dioxopiperidin-3-yl)amino]-2-fluorophenyl]piperidin-1-yl]acetyl]piperidin-4-yl]ethyl]-4-oxoquinazoline] are 46.9 nM and 13.9%.
As to `Cn1nc(N2CCC(=O)NC2=O)c2cc(F)c(N3CCC(O)(CC(=O)N4CCC5(CC4)C[C@@H](n4cnc6ccc(Oc7c(F)ccc(NS(=O)(=O)C8CCCCC8)c7C#N)cc6c4=O)CO5)CC3)cc21` [Example 188, N-[2-cyano-3-[3-[(3R)-8-[2-[1-[3-(2,4-dioxo-1,3-diazinan-1-yl)-5-fluoro-1-methylindazol-6-yl]-4-hydroxypiperidin-4-yl]acetyl]-1-oxa-8-azaspiro[4.5]decan-3-yl]-4-oxoquinazolin-6-yl]oxy-4-fluorophenyl]cyclohexanesulfonamide], the Emax is 27.3%. Besides, the 50% degradation concentration (DC50) (A375.10 cells, 24 h) worked out at 40.6 nM.
Regarding `CCN(C)S(=O)(=O)Nc1ccc(F)c(Oc2ccc3ncn(CCCC4(C)CCN(C(=O)CN5CCC(c6ccc(NC7CCC(=O)NC7=O)cc6F)CC5)CC4)c(=O)c3c2)c1C#N` (stereo not drawn) [Example 12, 6-[2-cyano-3-[[ethyl(methyl)sulfamoyl]amino]-6-fluorophenoxy]-3-[3-[1-[2-[4-[4-[(2,6-dioxopiperidin-3-yl)amino]-2-fluorophenyl]piperidin-1-yl]acetyl]-4-methylpiperidin-4-yl]propyl]-4-oxoquinazoline], the DC50 (A375.10 cells, 24 h) is 29.2 nM. The maximal response (Emax) under setting [1] was 8.33%.
Regarding `N#Cc1c(NS(=O)(=O)N2C[C@H]3C[C@H]3C2)ccc(F)c1Oc1ccc2ncn(-c3cnc(N4CCN(C(=O)CN5CCC(c6ccc(N[C@H]7CCC(=O)NC7=O)cc6F)CC5)CC4)nc3)c(=O)c2c1` [Example 128, (1S,5R)—N-[2-cyano-3-[3-[2-[4-[2-[4-[4-[[(3S)-2,6-dioxopiperidin-3-yl]amino]-2-fluorophenyl]piperidin-1-yl]acetyl]piperazin-1-yl]pyrimidin-5-yl]-4-oxoquinazolin-6-yl]oxy-4-fluorophenyl]-3-azabicyclo[3.1.0]hexane-3-sulfonamide], the 50% degradation concentration (DC50) (A375.10 cells, 24 h) turned out to be 19.5 nM. The maximum response (Emax) under setting [1] worked out at 9.91%.
In the same order, the values of `CCN(C)S(=O)(=O)Nc1ccc(F)c(Nc2ccc3ncn([C@H]4COC5(CCN(C(=O)CC6(O)CCN(c7cc8c(cc7F)c(N7CCC(=O)NC7=O)nn8C)CC6)CC5)C4)c(=O)c3c2Cl)c1C#N` (single isomer, unassigned) [Example 185] are 5.77 nM and 18.5%.
With `CCN(C)S(=O)(=O)Nc1ccc(F)c(Oc2ccc3ncc([C@H]4COC5(CCN(C(=O)CC6(O)CCN(c7cc8c(cc7F)c(N7CCC(=O)NC7=O)nn8C)CC6)CC5)C4)c(OC)c3c2)c1C#N` (single isomer, unassigned) [Example 225], the DC50 (A375.10 cells, 24 h) was more than 5000 nM. In addition, the Emax under setting [1] was found to be 65.3%.
In the same order, the values of `CCN(C)S(=O)(=O)Nc1ccc(F)c(Oc2ccc3ncn([C@H]4CCC5(CCN(C(=O)CN6CCC(c7ccc8c(C9CCC(=O)NC9=O)nn(C)c8c7)C(F)(F)C6)CC5)C4)c(=O)c3c2)c1C#N` (stereo partly drawn) [Example 160, 6-[2-cyano-3-[[ethyl(methyl)sulfamoyl]amino]-6-fluorophenoxy]-3-[(3S)-8-[2-[4-[3-(2,6-dioxopiperidin-3-yl)-1-methylindazol-6-yl]-3,3-difluoropiperidin-1-yl]acetyl]-8-azaspiro[4.5]decan-3-yl]-4-oxoquinazoline] are 22.2 nM and 23.9%.
In the same order, the values of `CCN(C)S(=O)(=O)Nc1ccc(F)c(Oc2ccc3ncn([C@H]4COC5(CCN(C(=O)CN6CCC(c7ccc(C8CCC(=O)NC8=O)cc7F)CC6)CC5)C4)c(=O)c3c2)c1C#N` (stereo partly drawn) [Example 46, (3R)-3-[6-[2-cyano-3-[[ethyl(methyl)sulfamoyl]amino]-6-fluorophenoxy]-4-oxoquinazolin-3-yl]-8-[2-[4-[4-(2,6-dioxopiperidin-3-yl)-2-fluorophenyl]piperidin-1-yl]acetyl]-1-oxa-8-azaspiro[4.5]decane] are 29.9 nM and 13.4%.
Where the note is “A375.10 cells, 24 h”, `CCN(C)S(=O)(=O)Nc1ccc(F)c(Oc2ccc3ncn(CCCC4(F)CCN(C(=O)CN5CCC(c6ccc(NC7CCC(=O)NC7=O)cc6F)CC5)CC4)c(=O)c3c2)c1C#N` (stereo not drawn) [Example 15, 6-[2-cyano-3-[[ethyl(methyl)sulfamoyl]amino]-6-fluorophenoxy]-3-[3-[1-[2-[4-[4-[(2,6-dioxopiperidin-3-yl)amino]-2-fluorophenyl]piperidin-1-yl]acetyl]-4-fluoropiperidin-4-yl]propyl]-4-oxoquinazoline] showed a DC50 of 11.1 nM. Besides, the Emax under setting [1] is 7.29%.
In the same order, the values of `CCN(C)S(=O)(=O)Nc1ccc(F)c(Oc2ccc3ncn(-c4ccc(N5CCN(C(=O)CN6CCC(c7ccc(N[C@@H]8CCC(=O)NC8=O)cc7F)CC6)CC5)nc4)c(=O)c3c2)c1C#N` [Example 93, 6-[2-cyano-3-[[ethyl(methyl)sulfamoyl]amino]-6-fluorophenoxy]-3-[6-[4-[2-[4-[4-[[(3R)-2,6-dioxopiperidin-3-yl]amino]-2-fluorophenyl]piperidin-1-yl]acetyl]piperazin-1-yl]pyridin-3-yl]-4-oxoquinazoline] are 28 nM and 14.1%.
In the same order, the values of `CCN(C)S(=O)(=O)Nc1ccc(F)c(Oc2ccc3ncn([C@H]4CCC5(CCN(C(=O)CN6CCN(c7cc8c(cc7F)c(N7CCC(=O)NC7=O)nn8C)CC6)CC5)C4)c(=O)c3c2)c1C#N` [Example 162, 6-[2-cyano-3-[[ethyl(methyl)sulfamoyl]amino]-6-fluorophenoxy]-3-[(3S)-8-[2-[4-[3-(2,4-dioxo-1,3-diazinan-1-yl)-5-fluoro-1-methylindazol-6-yl]piperazin-1-yl]acetyl]-8-azaspiro [4.5]decan-3-yl]-4-oxoquinazoline] are 17.3 nM and 14.5%.
In the same order, the values of `CCN(C)S(=O)(=O)Nc1ccc(F)c(Oc2ccc3ncn(C4CCC5(CCN(C(=O)CN6CCC(c7ccc(NC8CCC(=O)NC8=O)cc7F)CC6)CC5)C4)c(=O)c3c2F)c1C#N` (stereo not drawn) [Example 52, 6-[2-cyano-3-[[ethyl(methyl)sulfamoyl]amino]-6-fluorophenoxy]-3-[8-[2-[4-[4-[(2,6-dioxopiperidin-3-yl)amino]-2-fluorophenyl]piperidin-1-yl]acetyl]-8-azaspiro[4.5]decan-3-yl]-5-fluoro-4-oxoquinazoline] are 20.7 nM and 11.4%.
For the setting “A375.10 cells, 24 h”, `CCN(C)S(=O)(=O)Nc1ccc(F)c(Oc2ccc3ncn(C4COC5(CCN(C(=O)CN6CCC(c7ccc(NC8CCC(=O)NC8=O)cc7F)CC6)CC5)C4)c(=O)c3c2C)c1C#N` (stereo not drawn) [Example 59, 3-[6-[2-cyano-3-[[ethyl(methyl)sulfamoyl]amino]-6-fluorophenoxy]-5-methyl-4-oxoquinazolin-3-yl]-8-[2-[4-[4-[(2,6-dioxopiperidin-3-yl)amino]-2-fluorophenyl]piperidin-1-yl]acetyl]-1-oxa-8-azaspiro[4.5]decane] had a DC50 of 56 nM. In addition, the Emax under setting [1] was found to be 10.4%.
In the same order, the values of `CCN(C)S(=O)(=O)Nc1ccc(F)c(Oc2ccc3ncn(C4CCOC5(CCN(C(=O)CN6CCC(c7ccc(NC8CCC(=O)NC8=O)cc7F)CC6)CC5)C4)c(=O)c3c2)c1C#N` (stereo not drawn) [Example 29, 4-[6-[2-cyano-3-[[ethyl(methyl)sulfamoyl]amino]-6-fluorophenoxy]-4-oxoquinazolin-3-yl]-9-[2-[4-[4-[(2,6-dioxopiperidin-3-yl)amino]-2-fluorophenyl]piperidin-1-yl]acetyl]-1-oxa-9-azaspiro[5.5]undecane] are 33.7 nM and 12.1%.
In the same order, the values of `CCN(C)S(=O)(=O)Nc1ccc(F)c(Oc2ccc3ncn(C(C)CCC4CCN(C(=O)CN5CCC(c6ccc(NC7CCC(=O)NC7=O)cc6F)CC5)CC4)c(=O)c3c2)c1C#N` (stereo not drawn) [Example 10, 6-[2-cyano-3-[[ethyl(methyl)sulfamoyl]amino]-6-fluorophenoxy]-3-[4-[1-[2-[4-[4-[(2,6-dioxopiperidin-3-yl)amino]-2-fluorophenyl]piperidin-1-yl]acetyl]piperidin-4-yl]butan-2-yl]-4-oxoquinazoline] are 41.9 nM and 12.6%.
In the same order, the values of `Cn1nc(N2CCC(=O)NC2=O)c2cc(F)c(N3CCC(O)(CC(=O)N4CCC5(CC4)C[C@@H](n4cnc6ccc(Oc7c(F)ccc(NS(=O)(=O)C8CCC8)c7C#N)cc6c4=O)CO5)CC3)cc21` [Example 198, N-[2-cyano-3-[3-[(3R)-8-[2-[1-[3-(2,4-dioxo-1,3-diazinan-1-yl)-5-fluoro-1-methylindazol-6-yl]-4-hydroxypiperidin-4-yl]acetyl]-1-oxa-8-azaspiro[4.5]decan-3-yl]-4-oxoquinazolin-6-yl]oxy-4-fluorophenyl]cyclobutanesulfonamide] are 28.7 nM and 28.1%.
The molecule `CCN(C)S(=O)(=O)Nc1ccc(F)c(Oc2ccc3ncn(C4CCC5(CCN(C(=O)CN6CCC(c7ccc(NC8CCC(=O)NC8=O)cc7F)CC6)CC5)C4)c(=O)c3c2Cl)c1C#N` (stereo not drawn) [Example 70, 5-chloro-6-[2-cyano-3-[[ethyl(methyl)sulfamoyl]amino]-6-fluorophenoxy]-3-[8-[2-[4-[4-[(2,6-dioxopiperidin-3-yl)amino]-2-fluorophenyl]piperidin-1-yl]acetyl]-8-azaspiro[4.5]decan-3-yl]-4-oxoquinazoline] gave a DC50 (A375.10 cells, 24 h) of 27.7 nM. Also, under setting [1], the Emax was 10.7%.
